Test results reported in the NIST ThermoML archive (doi:10.1016/j.fluid.2016.10.005).

Test: molar heat capacity at constant pressure; mn = molality of the nth substance listed, in mol/kg
Settings: 101 kPa, Liquid, DSC

CCCCCOCCOCCOCCO [ethanol, 2-[2-[2-(pentyloxy)ethoxy]ethoxy]-] + O
molar heat capacity at constant pressure [J/K/mol]
Settings | 278.15 K | 283.15 K | 288.15 K | 293.15 K | 298.15 K | 308.15 K | 318.15 K | 328.15 K | 333.15 K
m1 = 0.0166 | 75.93 | 75.77 | 75.66 | 75.59 | 75.56 | 75.53 | 75.56 | 75.61 | 75.66
m1 = 0.0321 | 76.16 | 76 | 75.9 | 75.83 | 75.8 | 75.78 | 75.79 | 75.85 | 75.9
m1 = 0.0392 | 76.27 | 76.11 | 76 | 75.94 | 75.91 | 75.89 | 75.9 | 75.96 | 76
m1 = 0.06 | 76.59 | 76.43 | 76.32 | 76.26 | 76.22 | 76.2 | 76.21 | 76.27 | 76.32
m1 = 0.0876 | 77.01 | 76.85 | 76.74 | 76.68 | 76.64 | 76.62 | 76.63 | 76.68 | 76.74
m1 = 0.1214 | 77.52 | 77.36 | 77.26 | 77.2 | 77.15 | 77.13 | 77.14 | 77.2 | 77.24
m1 = 0.1388 | 77.79 | 77.63 | 77.53 | 77.47 | 77.42 | 77.4 | 77.41 | 77.47 | 77.51
m1 = 0.1661 | 78.19 | 78.05 | 77.95 | 77.9 | 77.85 | 77.81 | 77.85 | 77.89 | 77.91
m1 = 0.1861 | 78.49 | 78.35 | 78.26 | 78.21 | 78.16 | 78.12 | 78.21 | 78.2 | 78.21
m1 = 0.2119 | 78.88 | 78.75 | 78.66 | 78.62 | 78.57 | 78.55 | 78.65 | 78.59 | 78.59
m1 = 0.2272 | 79.1 | 78.99 | 78.91 | 78.86 | 78.81 | 78.84 | 78.89 | 78.81 | 78.78
m1 = 0.2499 | 79.44 | 79.34 | 79.27 | 79.22 | 79.18 | 79.27 | 79.21 | 79.1 | 79.08
m1 = 0.2726 | 79.77 | 79.7 | 79.64 | 79.59 | 79.56 | 79.68 | 79.49 | 79.36 | 79.36
m1 = 0.2949 | 80.1 | 80.06 | 80.02 | 79.97 | 79.97 | 80.07 | 79.75 | 79.59 | 79.62
m1 = 0.314 | 80.39 | 80.37 | 80.34 | 80.32 | 80.49 | 80.32 | 79.96 | 79.8 | 79.84
m1 = 0.3353 | 80.72 | 80.73 | 80.72 | 80.85 | 80.89 | 80.6 | 80.22 | 80.05 | 80.1
m1 = 0.3562 | 81.05 | 81.08 | 81.12 | 81.34 | 81.24 | 80.83 | 80.45 | 80.3 | –
m1 = 0.3851 | 81.51 | 81.58 | 81.77 | 81.87 | 81.68 | 81.19 | 80.78 | 80.63 | –
m1 = 0.4069 | 81.92 | 82.17 | 82.36 | 82.27 | 81.99 | 81.4 | 81.01 | 80.87 | –
m1 = 0.426 | 82.31 | 82.58 | 82.73 | 82.55 | 82.25 | 81.62 | 81.22 | 81.05 | –
m1 = 0.4405 | 82.64 | 82.93 | 82.99 | 82.77 | 82.43 | 81.77 | 81.37 | 81.17 | –
m1 = 0.4693 | 83.38 | 83.6 | 83.45 | 83.15 | 82.79 | 82.05 | 81.69 | 81.49 | –
m1 = 0.4858 | 83.82 | 83.98 | 83.71 | 83.35 | 82.97 | 82.23 | 81.84 | 81.65 | –
m1 = 0.5111 | 84.48 | 84.45 | 84.09 | 83.67 | 83.27 | 82.5 | 82.12 | 81.93 | –
m1 = 0.5381 | 85.09 | 84.88 | 84.46 | 84 | 83.58 | 82.8 | 82.41 | 82.22 | 82.29
m1 = 0.5586 | 85.48 | 85.2 | 84.75 | 84.26 | 83.82 | 83.04 | 82.64 | 82.43 | 82.51
m1 = 0.5849 | 85.92 | 85.58 | 85.09 | 84.59 | 84.14 | 83.34 | 82.92 | 82.72 | 82.8
m1 = 0.6026 | 86.2 | 85.82 | 85.31 | 84.76 | 84.33 | 83.52 | 83.11 | 82.91 | 83
m1 = 0.6299 | 86.63 | 86.13 | 85.61 | 85.06 | 84.6 | 83.81 | 83.39 | 83.19 | 83.28
m1 = 0.668 | 87.17 | 86.57 | 86.02 | 85.47 | 85 | 84.22 | 83.79 | 83.6 | 83.67
m1 = 0.7037 | 87.62 | 86.92 | 86.38 | 85.83 | 85.34 | 84.59 | 84.15 | 83.97 | 84.02
m1 = 0.731 | 87.93 | 87.19 | 86.64 | 86.08 | 85.59 | 84.86 | 84.42 | 84.23 | 84.3
m1 = 0.7714 | 88.33 | 87.59 | 87 | 86.43 | 85.97 | 85.25 | 84.81 | 84.65 | 84.71
m1 = 0.8141 | 88.74 | 88.03 | 87.41 | 86.86 | 86.39 | 85.68 | 85.26 | 85.09 | 85.14
m1 = 0.8293 | 88.85 | 88.14 | 87.53 | 86.96 | 86.5 | 85.79 | 85.38 | 85.24 | 85.28
m1 = 0.8679 | 89.21 | 88.51 | 87.87 | 87.32 | 86.88 | 86.14 | 85.78 | 85.64 | 85.68
m1 = 0.9125 | 89.61 | 88.91 | 88.26 | 87.74 | 87.28 | 86.56 | 86.22 | 86.09 | 86.13
m1 = 0.9573 | 90.05 | 89.36 | 88.69 | 88.18 | 87.71 | 87 | 86.71 | 86.56 | 86.62
